Data as given in PMC5482804, “YvcK, a protein required for cell wall integrity and optimal carbon source utilization, binds uridine diphosphate-sugars” (Scientific Reports, 2017).

Key:
YvcK [1] = target: T1, YvcK (Bacillus subtilis, UniProt O06974); test: thermal shift assay (SYPRO Orange) with apparent KD; limited trypsin proteolysis; assay type: binding
T1 construct: gene mgfK; His6-tagged YvcK

YvcK [2] = target: T1, YvcK; test: thermal shift assay (SYPRO Orange) with apparent KD; assay type: binding

T1 sequence (O06974 whole entry): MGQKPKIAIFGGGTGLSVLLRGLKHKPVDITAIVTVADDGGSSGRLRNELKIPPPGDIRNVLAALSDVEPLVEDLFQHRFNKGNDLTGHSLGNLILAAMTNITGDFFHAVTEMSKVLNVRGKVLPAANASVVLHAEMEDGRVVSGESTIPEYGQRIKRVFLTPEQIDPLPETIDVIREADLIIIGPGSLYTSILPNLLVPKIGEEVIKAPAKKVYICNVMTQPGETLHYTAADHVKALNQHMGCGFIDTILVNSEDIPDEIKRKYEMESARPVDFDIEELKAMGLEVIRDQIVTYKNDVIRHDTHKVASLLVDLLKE

Row | Kd (YvcK [1]) [mM] | Kd (YvcK [2]) [mM] | Compound
1 | 0.41 ± 0.24 | – | CC(=O)N[C@H]1[C@@H](OP(=O)(O)OP(=O)(O)OC[C@H]2O[C@@H](n3ccc(=O)[nH]c3=O)[C@H](O)[C@@H]2O)O[C@H](CO)[C@@H](O)[C@@H]1O [UDP-GlcNAc]
2 | – | 6.21 ± 0.62 | O=c1ccn([C@@H]2O[C@H](COP(=O)(O)OP(=O)(O)O)[C@@H](O)[C@H]2O)c(=O)[nH]1 [UDP]
